# Assay results published in patent publication US11771083B2, “Flower thinning composition and flower thinning method using same” (priority 2018, dated 2023).
# Where two headings read alike, the source gives them in different places.
# Key:
# Fuji apple variety [1] = experiment: Flower-thinning effect of one alcohol species formulations (Test Example 1); format: in vivo; conditions: for Number of lateral fruits set: 20 days post-spraying; for Lateral flower-thinning rate (%) / Total flower-thinning rate (%): relative to untreated group; for Flower-thinning contribution rate in IAP-108: spray concentration 0.2%, effect × content (0.4 or 0.6)
# Fuji apple variety [2] = conditions: in vivo; for Phytotoxicity: Fuji, apple
# Description: Each of the chemical solutions was sprayed with a DIA (FURUPLA DIA SPRAY 570, Furupla Co., Ltd.) handy spray in both right and left directions in a sufficient amount to run along each flower cluster.
# In this test, treatment (spraying) was performed when lateral flowers was in full bloom (Apr. 25, 2014), and phytotoxicity was assessed by visual scoring on day 4 after post-spraying (April 29) and day 11 after post-spraying (May 6). The flower-thinning effect was measured by recording the number of young fruits set without flower thinning on 20 days post-spraying (May 15). The flower thinning activity relative to that of the untreated group was presented as (1−number of young fruits in treated group/number of young fruits in untreated group)×100. This test was designed to have 8 replications with one flower cluster as one replication. Fertilization of the apple flowers was induced by natural fertilization.
# honeybees [3] = experiment: Acute contact toxicity to honeybees, active ingredients in acetone (Test Example 4); format: in vivo; conditions: for Lethality (%): 72 hours after treatment
# honeybees [4] = conditions: active ingredient dissolved in acetone
# Description: In the contact toxicity test for honeybees, healthy honeybees bred in an outdoor beekeeping system were acclimated in a breeding cage, and then anesthetized with CO2. […] This treatment was repeated 3 times for ten honeybees per test cage, and the honeybees were bred at 25° C. under dark conditions for 72 hours. The lethality of each aliphatic alcohol was measured.
# peach leaves = conditions: 3-4% decyl alcohol; cited from earlier work
# [5] = treatment dose 200 μg per honeybee in acetone
compound,measurement,setting,value
"CCCCCCCCCCO [1-Decanol, 1-decanol]",Number of central fruits set,Fuji apple variety [1]; concentration 0.01%,6
same,Total number of fruits set,Fuji apple variety [1]; concentration 0.01%,22
same,Number of lateral fruits set,Fuji apple variety [1]; concentration 0.01%,16
same,Lateral flower-thinning rate (%),Fuji apple variety [1]; concentration 0.01%,16%
same,Total flower-thinning rate (%),Fuji apple variety [1]; concentration 0.01%,12%
same,Number of central fruits set,Fuji apple variety [1]; concentration 0.05%,5
same,Total number of fruits set,Fuji apple variety [1]; concentration 0.05%,22
same,Number of lateral fruits set,Fuji apple variety [1]; concentration 0.05%,17
same,Lateral flower-thinning rate (%),Fuji apple variety [1]; concentration 0.05%,11%
same,Total flower-thinning rate (%),Fuji apple variety [1]; concentration 0.05%,12%
same,Number of central fruits set,Fuji apple variety [1]; concentration 0.2%,5
same,Total number of fruits set,Fuji apple variety [1]; concentration 0.2%,15
same,Number of lateral fruits set,Fuji apple variety [1]; concentration 0.2%,10
same,Lateral flower-thinning rate (%),Fuji apple variety [1]; concentration 0.2%,47%
same,Total flower-thinning rate (%),Fuji apple variety [1]; concentration 0.2%,40%
same,Flower-thinning contribution rate in IAP-108,Fuji apple variety [1],28.2%
same,Phytotoxicity,Fuji apple variety [2],0
same,Phytotoxicity (in words),Fuji apple variety [2],no phytotoxicity
same,Comparative contact toxicity to honeybees (in words),honeybees [3]; among aliphatic alcohols and versus fatty acids of same carbon number,more toxic than 1-decanoic acid
same,Comparative contact toxicity to honeybees (in words),honeybees [3]; in vivo,highest lethality
same,Lethality (%),honeybees [3]; treatment dose 50 μg per honeybee in acetone,70%
same,Lethality (%),honeybees [3]; [5],100%
same,Lethality (%),honeybees [4]; treatment dose 50 μg,70%
same,Phytotoxicity to peach leaves,peach leaves,significant phytotoxicity
"CCCCCCO [1-Hexanol, 1-hexanol]",Number of central fruits set,Fuji apple variety [1]; concentration 0.2%,6
same,Total number of fruits set,Fuji apple variety [1]; concentration 0.2%,15
same,Number of lateral fruits set,Fuji apple variety [1]; concentration 0.2%,9
same,Lateral flower-thinning rate (%),Fuji apple variety [1]; concentration 0.2%,53%
same,Total flower-thinning rate (%),Fuji apple variety [1]; concentration 0.2%,40%
same,Number of central fruits set,Fuji apple variety [1]; concentration 1%,5
same,Total number of fruits set,Fuji apple variety [1]; concentration 1%,10
same,Number of lateral fruits set,Fuji apple variety [1]; concentration 1%,5
same,Lateral flower-thinning rate (%),Fuji apple variety [1]; concentration 1%,74%
same,Total flower-thinning rate (%),Fuji apple variety [1]; concentration 1%,60%
same,Phytotoxicity,Fuji apple variety [2],0
same,Lethality (%),honeybees [3]; [5],6.7%
same,Lethality (%),honeybees [4]; treatment dose 100 μg,3.3%
"CCCCCCCCO [1-Octanol, 1-octanol]",Number of central fruits set,Fuji apple variety [1]; concentration 0.2%,7
same,Total number of fruits set,Fuji apple variety [1]; concentration 0.2%,13
same,Number of lateral fruits set,Fuji apple variety [1]; concentration 0.2%,6
same,Lateral flower-thinning rate (%),Fuji apple variety [1]; concentration 0.2%,68%
same,Total flower-thinning rate (%),Fuji apple variety [1]; concentration 0.2%,48%
same,Number of central fruits set,Fuji apple variety [1]; concentration 1%,3
same,Total number of fruits set,Fuji apple variety [1]; concentration 1%,4
same,Number of lateral fruits set,Fuji apple variety [1]; concentration 1%,1
same,Lateral flower-thinning rate (%),Fuji apple variety [1]; concentration 1%,95%
same,Total flower-thinning rate (%),Fuji apple variety [1]; concentration 1%,84%
same,Efficacy (in words),Fuji apple variety [1]; concentration of 1% (V/V),sufficient efficacy
same,Flower-thinning contribution rate in IAP-108,Fuji apple variety [1],27.2%
same,Lethality (%),honeybees [3]; [5],50%
same,Lethality (%),honeybees [4]; treatment dose 100 μg,50%
"CCCCCCCCCC(=O)O [1-decanoic acid, reference compound]",Lethality (%),honeybees [3]; [5],90%
"CCCCCC(=O)O [1-hexanoic acid, reference compound]",Lethality (%),honeybees [3]; [5],30.0%
"CCCCCCCC(=O)O [1-octanoic acid, reference compound]",Lethality (%),honeybees [3]; [5],60%
"CCCCCCCC/C=C\CCCCCCCCO [Oleyl alcohol, oleyl alcohol]",Lateral flower-thinning rate (%),Fuji apple variety [1]; concentration 0.1%,16%
same,Lethality (%),honeybees [3]; [5],20%
